In patent US10718769B2, “Compounds comprising one or more hydrophobic domains and a hydrophilic domain comprising peg moieties, useful for binding cells” (Roche Diagnostics Operations, Inc., priority 2013, dated 2020):
Several values for one entry are separate records, joined by “and”; a condition that tells them apart may be missing. Equal entries are not always repeated. Where two headings read alike, the source gives them in different places.

Assays:
[1] = test system: Jurkat cells; details: centrifugation 20 min, 500×g; within 5.5 h incubation with molecule
Protocol: Respective columns from left: 1: 10 min incubation with molecule. 2: 1 h incubation with molecule. 3: 3,5 h incubation with molecule. 4: 5.5 h min incubation with molecule. Following molecules were tested: 1255: 3′-(Myristic acid)2-PEG2000-dT-Biotin-TEG-5′ INVERS. 1234: 5′-(Cholesteryl-TEG)2-Spacer C18-dT-Biotin-TEG-3′; 1248: 3′-(Cholesteryl-TEG)2-PEG2000-Fluos-Biotin-TEG-5′ INVERS; 1254: 3′-(Cholesteryl-TEG)2-SpacerC18-Fluos-Biotin-TEG-5′ INVERS. […] Centrifugation characteristics: 20 min, 500×g.
(§1) Following molecules were tested: • 1255: 3′-(Myristic acid)2-PEG2000-dT-Biotin-TEG-5′ INVERS • 1234: 5′-(Cholesteryl-TEG)2-Spacer C18-dT-Biotin-TEG-3′ • 1248: 3′-(Cholesteryl-TEG)2-PEG2000-Fluos-Biotin-TEG-5′ INVERS • 1254: 3′-(Cholesteryl-TEG)2-SpacerC18-Fluos-Biotin-TEG-5′ INVERS
Centrifugation characteristics: 20 min, 500×g.

[2] = test system: white blood cells (WBCs); details: for WBC per well: 300 000 WBCs/well
Protocol: Aim of this experiment: Testing of the white blood cell immobilization on a streptavidin-coated surface using different molecules of the invention. In particular, the performance of a single cholesterol-molecule and different dual-linker molecules (i.e. containing two hydrophobic moieties) was tested. In detail, immobilization of white blood cells (WBCs) on a Streptavidin-coated surface using different linker molecules was tested on a 12-well plate: 300 000 WBCs/well. This was followed by the measurement of the cell recovery rate after immobilization and washing of the cells using the Cellavista instrument (10× Nuclei Operator s9s5).

[3] = test system: WBC (white blood cells); details: for MW (mean WBC per well): target: 300.000 WBC
Protocol: 4× determination. Row A: 200 μl PBS introduced, 1 nmol of compound added thereto respectively, mixed, incubated about 30 min, washed 2×PBS, 800 μl PBS introduced, 300.000 WBC (untreated) added. Row B: 800 μl PBS introduced, 300.000 WBC (untreated) added. Row C: 10×10^6 WBC in 1 ml with 10 nmol compound of invention 10 min incubated, 800 μl PBS/Well introduced, 300.000 treated WBC respectively. The first MTP plate washed after 30 min 2× with PBS, overlayed with Höchst and incubated for 15 min.>Cellavista (Operator s9s5) measured. The second plate was measured after 90 min. The third plate was measured after 150 min.
The experiments were performed for different incubation times, as shown below:
As starting material 5′-(Cholesteryl-TEG)2-PEG2000-Fluos-Biotin_TEG-3′ INVERS
(14530 pmol/μl) (Internal Reference No.: 29.891250), and a streptavidin treated MTP (Microcoat), 12 Well plate were used.
Erythrocyte lysis was performed as follows:
EDTA-whole blood 59.423 6.400 WBC/μl (Ambulanz Roche)
lysis buffer: 100 mM NH4Cl+5 mM Hepes+0.5 mM KHCO3+0.1 mM EDTA-K
Ca 1×8 ml whole blood filled in 50 ml Falcon tube with lysis buffer, incubate at room temperature for 10 min
15 min at 250 g centrifugated, pellet resuspended by pipetting in and out in lysis buffer; filled to 50 ml with lysis buffer
15 min 250 g centrifugated, pellet resuspended with PBS, filled to 50 ml with PBS, 15 min 250 g centrifugated, filled to 50 ml with PBS
The design of the experiment on the plate is explained below (see FIG. 2):
3×12 Well MTP: Treatment of the WBC with compounds of the invention:
Row A: 200 μl PBS introduced, 1 nmol of compound added thereto respectively, mixed, incubated about 30 min, washed 2×PBS,
800 μl PBS introduced, 300.000 WBC (untreated) added.
Row B: 800 μl PBS introduced, 300.000 WBC (untreated) added.
Row C: 10×10^6 WBC in 1 ml with 10 nmol compound of invention 10 min incubated, 800 μl PBS/Well introduced, 300.000 treated WBC respectively.
The first MTP plate washed after 30 min 2× with PBS, overlaid with Höchst and incubated for 15 min.>Cellavista (Operator s9s5) measured.
The second plate was measured after 90 min.
The third plate was measured after 150 min.

[4] = test system: U937; experiment: Labelling of cells using compounds of the invention; assay type: cell-based
From the text: (§2) 2. Labelling of Cells Using Compounds of the Invention

[5] = test system: Epithelial cells; experiment: as above; assay type: cell-based
From the text: as §2

[6] = test system: WBCs; experiment: as above; assay type: cell-based
From the text: as §2

[7] = test system: MDA-MB468; experiment: as above; assay type: cell-based
From the text: as §2

[8] = test system: WBC; experiment: WBC recovery rate after centrifugation (stabilization of cells, Example 5); assay type: cell-based; details: centrifugation 10 min, 300×g
Protocol: (§3) Centrifugation characteristics: 10 min, 300×g.
as §3
The respective left, middle and right columns per assay represent different Experimenters 1, 2 and 3. […] Centrifugation characteristics: 10 min, 300×g. Molecule: Cholesteryl-TEG-Cholesteryl-TEG-(SpacerC18)7-Fluos-Biotin-TEG.
(§4) Following molecules were tested: 1234: 5′-(Cholesteryl-TEG)2-Spacer C18-dT-Biotin-TEG-3′; 1248: 3′-(Cholesteryl-TEG)2-PEG2000-Fluos-Biotin-TEG-5′ INVERS; 1254: 3′-(Cholesteryl-TEG)2-SpacerC18-Fluos-Biotin-TEG-5′ INVERS; 1255: 3′-(Myristic acid)2-PEG2000-dT-Biotin-TEG-5′ INVERS. […] Centrifugation characteristics: 20 min, 300×g. Respective left column: 10 min incubation with molecule. Respective middle column: 1 h min incubation with molecule. Respective right column: 2 h incubation with molecule.
Following molecules were tested: 1255: 3′-(Myristic acid)2-PEG2000-dT-Biotin-TEG-5′ INVERS; 1234: 5′-(Cholesteryl-TEG)2-Spacer C18-dT-Biotin-TEG-3′; 1248: 3′-(Cholesteryl-TEG)2-PEG2000-Fluos-Biotin-TEG-5′ INVERS; 1254: 3′-(Cholesteryl-TEG)2-SpacerC18-Fluos-Biotin-TEG-5′ INVERS. […] Centrifugation characteristics: 20 min, 500×g. Respective left column: 10 min incubation with molecule. Respective middle column: 1 h min incubation with molecule. Respective right column: 3 h incubation with molecule.
as §4, with “tested: 1255: 3′-(Myristic acid)2-PEG2000-dT-Biotin-TEG-5′ INVERS;” for “tested:”, “3′-(Cholesteryl-TEG)2-SpacerC18-Fluos-Biotin-TEG-5′” for “3′-(Cholesteryl-TEG)2-SpacerC18-Fluos-Biotin-TEG-5′ INVERS; 1255: 3′-(Myristic acid)2-PEG2000-dT-Biotin-TEG-5′”, “1000×g.” for “300×g.”
The effect of compounds of the invention on stabilizing cells and on immobilization was determined.
Centrifugation characteristics: 10 min, 300×g. A: Choleseryl-TEG-Cholesteryl-TEG-(SpacerC18)7-Fluos-Biotin-TEG.
Centrifugation characteristics: 10 min, 300×g. Molecule: Cholesteryl-TEG-Cholesteryl-TEG-(SpacerC18)7-Fluos-Biotin-TEG.
Centrifugation characteristics: 20 min, 300×g.
as §1

[9] = test system: Hela; experiment: Labelling of cells using compounds of the invention; assay type: cell-based; details: * one cell stained weakly
From the text: as §2

[10] = test system: CHO; experiment: as above; assay type: cell-based
From the text: as §2

[11] = Sample 1, first block of the table (r4-r12), footnote: 1 nmol/10e6 WBCs
[12] = Sample 1, second block of the table (r13-r21), compound concentration: 1 nmol/10e6 WBCs
[13] = Sample 2, compound concentration: 100 pmol/10e6 WBCs
[14] = Sample 2, compound concentration: 1 nmol/10e6 WBCs

3′-(Cholesteryl-TEG)2-PEG2000-Fluos-Biotin-TEG-5′ INVERS [compound 1248]
Stability of Jurkat culture cells during centrifugation [1]: stable during centrifugation processes

5′-(Cholesterol-TEG)1-Doubler-dT-Biotin-3′ [29.891272]
WBC per well [2, 11]: 147132 and 179643 and 181620 | WBC per well [2, 12]: 199973 and 220701 and 228481 | Mean (WBC per well) [2, 13]: 186316.33 | WBC per well [2, 13]: 161504 and 201424 and 196021 | Mean (WBC per well) [2, 14]: 247418.33 | WBC per well [2, 14]: 241232 and 254894 and 246129

5′-(Cholesteryl-TEG)2-PEG2000-Fluos-Biotin_TEG-3′ INVERS [29.891250]
Mean % / WBC recovery rate [%] ([3]; 30 min, WBC treated (molecule of invention + cells)): 77.28% | MW (mean WBC per well) ([3]; 30 min, WBC treated): 231829.75 | Mean % / WBC recovery rate [%] ([3]; 30 min, Well treated (molecule of invention bound to surface)): 21.64% | MW (mean WBC per well) ([3]; 30 min, Well treated): 64909 | Mean % / WBC recovery rate [%] ([3]; 90 min, WBC treated (molecule of invention + cells)): 83.12% and 83.1% | MW (mean WBC per well) ([3]; 90 min, WBC treated): 249346.25 | Mean % / WBC recovery rate [%] ([3]; 90 min, Well treated (molecule of invention bound to surface)): 47.62% and 47.6% | MW (mean WBC per well) ([3]; 90 min, Well treated): 142865 | Mean % / WBC recovery rate [%] ([3]; 120 min, WBC treated (molecule of invention + cells)): 86.23% | MW (mean WBC per well) ([3]; 120 min, WBC treated): 258692.75 | Mean % / WBC recovery rate [%] ([3]; 120 min, Well treated (molecule of invention bound to surface)): 57.02% | MW (mean WBC per well) ([3]; 120 min, Well treated): 171062.75

5′-(Cholesteryl-TEG)2-Spacer C12-dT-Biotin_TEG-3′ INVERS [29.891253]
WBC per well [2, 11]: 105061 and 128195 and 139678 | WBC per well [2, 12]: 218861 and 221471 and 208802 | Mean (WBC per well) [2, 13]: 187757.67 | WBC per well [2, 13]: 178919 and 197130 and 187224 | Mean (WBC per well) [2, 14]: 237052.33 | WBC per well [2, 14]: 239105 and 240632 and 231420

5′-Cholesteryl-TEG-PEG2000-Fluos-3′ [BMO 29.891132]
Labelling (staining) of U937 [4]: √ | Labelling (staining) of Epithelial cells [5]: √ | Labelling (staining) of WBCs [6]: √ not all | Labelling (staining) of MDA-MB468 [7]: √

5′-CholesterylTEG-CholesterylTEG-(SpacerC18)7-Fluos-BiotinTEG-3′ [BMO 29.891222_Ch03]
WBC recovery rate after centrifugation, dependence on concentration [8]: The higher the molecule concentration, the higher the cell recovery rate after centrifugation | Cell stabilization with different experimenters ([8]; Experimenters 1, 2 and 3): cell stabilization is independent on the experimenter | WBC recovery rate after centrifugation, dependence on concentration ([8]; listed as molecule A): The higher the molecule concentration, the higher the cell recovery rate after centrifugation

5′-alphaTocopherolTEG-PEG2000-Fluos-3′ [BMO 29.891131]
Labelling (staining) of U937 [4]: √ | Labelling (staining) of Epithelial cells [5]: √ | Labelling (staining) of WBCs [6]: √ not all | Labelling (staining) of MDA-MB468 [7]: √

CCCCCCCCCCCCCCCC(=O)OC[C@H](COP(=O)(O)OCCNC(=O)CCc1ccc2n1[B-](F)(F)[N+]1=C(C)C=C(C)C1=C2)OC(=O)CCCCCCCCCCCCCCC.CCN(CC)CC [Phosphatidylethanolamine, N-(4,4-difluoro-5,7-dimethyl-4-bora-3a,4a-diaza-s-indacene-3-propionyl)-1,2-dihexadecanoyl-sn-glycero-3-phosphoethanolamine, triethylammonium salt]
Labelling (staining) of Hela [9]: x/√ very weak

CCCCCCCCCCCCC/C=C/[C@@H](O)[C@H](COP(=O)([O-])OCC[N+](C)(C)C)NC(=O)CCCCc1ccc2n1[B-](F)(F)[N+]1=C(C)C=C(C)C1=C2 [Sphingomyelin, N-(4,4-difluoro-5,7-dimethyl-4-bora-3a,4a-diaza-s-indacene-3-pentanoyl)sphingosyl phosphocholine]
Labelling (staining) of Epithelial cells [5]: √ | Labelling (staining) of WBCs [6]: (x)- very bad | Labelling (staining) of Hela [9]: √ | Labelling (staining) of CHO [10]: x very weak

Biotin-PEG-Lysin-(C18)2
WBC recovery rate after centrifugation, dependence on concentration ([8]; listed as molecule B): The higher the molecule concentration, the higher the cell recovery rate after centrifugation

Sulfo-JA133-phenylboronic acid [BMO: 15.000078]
Labelling (staining) of Epithelial cells [5]: √ | Labelling (staining) of WBCs [6]: √ not all
